Experimental data published in patent US20090227470A1, “SELECTION OF BIOCATALYSTS FOR CHEMICAL SYNTHESIS” (priority 2005, published 2009).
Where “and” joins values, the source holds several entries; their conditions need not be identical. Identical values can stand only once. Like-named read-outs stand apart in the source and are kept apart here.

Assays:
[1] = test system: DH10B-pVSF2-tet^r (NahR mutant, Psal fused to tetA); assay: microbe, parasite or virus in culture; conditions: Escherichia coli, read-out: concentration required for half maximal colony size (colony diameter 50% of maximum), product added extracellularly, selective plates; estimated from inverse plots of FIG. 3
Procedure: (§1) Each plate assay was conducted in triplicate and growth was determined by measuring the colony diameter of 10 solitary colonies for each plate.
(§2) We compared the sensitivity of the selector host for substrates and products by plotting the data of FIGS. 3 and 4 as inverse plots of 1/[colony diameter] vs 1/[compound] and estimating the concentration required for half maximal colony size.

E. coli cell membranes = assay: Passive diffusion across the cell envelope; type: in vitro ADME; conditions: for diffusion rate across E. coli cell membranes: estimated from studies of toluene oxidation by E. coli hosts containing xylMA
Excerpt: This can be considered to be due to differences in the transport of benzaldehyde and benzoate through the E. coli cell envelope. Such transport is believed to involve only passive diffusion^21,22. […].
Thus, substrate influx and product efflux, though different, are quite rapid. […]

[2] = test system: DH10B-pVSF2-lacZ/pCom10-XylC (benzaldehyde dehydrogenase XylC from Pseudomonas putida); assay: Plate-based assay for β-galactosidase activity, biocat-reporter strain with XylC substrates; conditions: plates with chloramphenicol, kanamycin, X-Gal; decane vapor to induce XylC
Procedure: Cells were plated and grown as above, under decane vapor, followed by incubation at 4° C. and testing for blue colony color as above.
Strain DH10B-pVSF2-lacZ was transformed with pCom10-XylC, streaked on plates containing chloramphenicol, kanamycin, X-Gal and varying concentrations of benzaldehyde or 2-hydroxybenzaldehyde, and grown exposed to decane vapor to induce XylC. Strain DH10B-pVSF2-lacZ, carrying an empty pCom10 vector served as control.

[3] = test system: DH10B-pVSF2-tet^r/pCom10-XylC (benzaldehyde dehydrogenase XylC from Pseudomonas putida); assay: Plate-based assay for tetracycline resistance, biocat-selector strain with XylC substrates; type: cell-based, Escherichia coli; conditions: for EC50: Escherichia coli, read-out: substrate concentration required for half-maximal colony diameter, cells containing XylC, selective plates, estimated from inverse plots of FIG. 4
Excerpt: Plasmid pCom10-XylC was re-introduced into DH10B-pVSF2-tet^r to produce the desired biocat-selector strain DH10B-pVSF2-tet^r/pCom10-XylC. This strain grew on tetracycline containing selective plates only after addition of benzaldehyde or 2-hydroxybenzaldehyde.

NahR variant = NahR variant (Pseudomonas putida, UniProt P10183, N169D); conditions: reported by de Lorenzo and coworkers (Cebolla et al., 1997); cited from earlier work
Sequence of NahR variant (P10183 whole entry N169D, the tested form may be a part): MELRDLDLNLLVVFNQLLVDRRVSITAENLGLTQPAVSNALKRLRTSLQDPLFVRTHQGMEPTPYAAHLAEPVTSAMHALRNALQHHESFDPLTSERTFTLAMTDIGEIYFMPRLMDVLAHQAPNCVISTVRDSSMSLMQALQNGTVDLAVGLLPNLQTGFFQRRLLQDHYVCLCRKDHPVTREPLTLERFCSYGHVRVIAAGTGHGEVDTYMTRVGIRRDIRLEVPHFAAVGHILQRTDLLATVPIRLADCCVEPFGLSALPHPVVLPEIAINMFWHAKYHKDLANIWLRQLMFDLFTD

[4] = test system: DH10B-pVSF2-lacZ (NahR mutant, salicylate promoter Psal fused to lacZa); conditions: plates with chloramphenicol and X-Gal, 36 h at 30° C.
Procedure: E. coli DH10B cells harbouring reporter plasmid pVSF2-lacZ were streaked on the plates from a liquid culture that had been grown at 30° C. to an OD600 of 0.1. Cells were grown for 36 h at 30° C. followed by incubation at 4° C. for 24 h after which blue colony color formation was evaluated visually.

[5] = test system: DH10B-pVSF2-tet^r (NahR mutant, Psal fused to tetA)
Procedure: as §1, §2

## O=C(O)c1ccccc1 [benzoate]
[1]
  EC50: ~400 µM
E. coli cell membranes
  time for intracellular and extracellular concentrations to equilibrate: one minute
  diffusion rate across E. coli cell membranes: > 10 μmol/min/g cell dry mass

## O=Cc1ccccc1O [2-hydroxybenzaldehyde]
[2]
  substrate concentration above which blue colonies were formed: above 25 μM
[3]
  EC50: ~0.3 µM

## O=C(O)c1ccccc1O [2-hydroxybenzoate]
NahR variant
  affinity of the NahR chemosensor, times greater than for benzoate: 10
[4]
  concentration above which blue colonies were detected: higher than 10 μM
  saturating concentration for blue colony formation: ~100 µM
[5]; 2-hydroxy substituted vs unsubstituted compound
  fold more effective than the parent compound in triggering tetracycline resistance: 15-20
[5]; read-out: concentration required for half maximal colony size (colony diameter 50% of maximum), product added extracellularly, selective plates, estimated from inverse plots of FIG. 3
  EC50: ~20 µM and 20 µM
[5]; selective media with tetracycline
  minimum concentration at which colonies were formed: 10 µM
[5]; selective plates with tetracycline
  concentration at which smaller and also fewer colonies were observed: 10 µM

## O=Cc1ccccc1 [benzaldehyde]
[2]
  substrate concentration above which blue colonies were formed: above 50 μM
E. coli cell membranes
  time for intracellular and extracellular concentrations to equilibrate: a few seconds
  diffusion rate across E. coli cell membranes: exceed 180 μmol/min/g cell dry mass
[3]
  EC50: ~6 µM
[3]; host with higher tetracycline tolerance, selective conditions
  concentration giving homogeneous growth: ~100 µM
